Data set [1] is described as follows: Acute toxicity in mice. To be noted: in vivo. As for the experimental part:
(§1) The acute toxicity of the N-(2-guanidinoethyl)-5-isoquinolinesulfonamide dihydrochloride was measured by giving male ddY-strain mouse and rat an intravenous administration and an oral administration.
The acute toxicity of the hydrochloric acid salt of other compounds was measured by giving male ddY-strain mice an intravenous administration.

In data set [2] the test system is femoral artery. Description: Effect on blood flow volume in femoral artery of anesthetized dogs. It is filed as in vivo, dog of mixed breed. The note with it: intravenous. As for the experimental part:
(§2) The effect of the isoquinolinesulfonamide derivatives and the pharmaceutically acceptable acid addition salts of this invention on the vasodilatation of the femoral and vertebral arteries can be measured by anesthetizing a dog of mixed breed weighing 8 to 15 Kg by an intravenous administration of 35 mg/Kg of pentbarbital, providing an acute type probe (a product of Nippon Koden K.K., Japan) with the femoral and vertebral arteries, administering the isoquinolinesulfonamide derivatives and the pharmaceutically acceptable acid addition salts to the femoral vein through a polyethylene tube inserted into the femoral vein side chain and measuring the blood flow volume with an electromagnetic flowmeter (a product of Nippon Koden K.K., Japan, "MFV-1200"). 1 mg/Kg of N-(2-guanidinoethyl)-5-isoquinolinesulfonamide, i.e., Compound (2) was intravenously administered, the increased blood flow volumes in the vertebral artery and in the femoral artery were 95% and 37%. And the duration time is more than 30 minutes.
(§3) The effect on the vasodilatation of the femoral and vertebral arteries was measured by anesthetizing a dog of mixed breed weighing 8 to 15 Kg by an intravenous administration of 35 mg/Kg of pentbarbital, providing an acute type probe (a product of Nippon Koden K.K., Japan) with the femoral and vertebral arteries, administering to the femoral vein through a polyethylene tube inserted into the femoral vein side chain, measuring the blood flow volume with an electromagnetic blood flowmeter (a product of Nippon Koden K.K., Japan, "MFV-1200") and measuring the change of blood pressure.

Data set [3] has as its system vertebral artery. Description: Effect on blood flow volume in vertebral artery of anesthetized dogs. The format is in vivo, dog of mixed breed. To be noted: intravenous. As for the experimental part: as §2, §3
Data set [4] in a line: Hypotensive action (change of blood pressure) in anesthetized dogs. The note with it: intravenous. It is filed as in vivo, dog of mixed breed. As for the experimental part: as §3
The test system of data set [5] is mesenteric artery. The data set is described as follows: Relaxation of rabbit mesenteric artery contracted with KCl (isolated helical strip). It is filed as cell-based. The note with it: Oryctolagus cuniculus; concentration for 50% relaxation (complete relaxation = 100%); KCl 15-20 mM contraction; read-out: Relaxation of Mesenteric Artery ED50. As for the experimental part: When, for example, N-(2-guanidinoethyl)-5-isoquinolinesulfonamide, i.e., compound (2) was added and a complete relaxation was designated 100%, the concentration which could bring about a relaxation of 50%, i.e., ED50 was 1 μM.
After a home bred rabbit of a Japanese species weighing about 3 Kg was subjected to bloodletting, resulting in death and then to abdominal incision, the mesenteric artery was taken out, cut into helicoids of 2 mm×25 mm and suspended in a 20 ml organ bath filled with a Krebs-Henseleit solution into which a mixed gas of 95% by volume of O2 and 5% by volume of CO2 was introduced and one end of the artery was connected with an isometric transducer. When a load of 1.5 g was applied to the artery, the contraction and the relaxation of the artery were recorded as a weight on the transducer (a product of Nippon Koden K.K., Japan, "FD Pickup TB-912T"). The relaxation of the mesenteric artery was observed by adding the isoquinolinesulfonamide derivatives and their pharmaceutically acceptable acid addition salts of this invention to the mesenteric artery at the condition of about one half of the maximum contraction with KCl concentration of 15-20 mM. When the complete relaxation of the mesenteric artery was designated 100%, the concentration of the isoquinolinesulfonamide derivatives and their pharmaceutically acceptable acid addition salts which brought about a relaxation of 50% is shown in Table 26.

The test system of data set [6] is femoral and vertebral arteries. The data set is described as follows: Duration time of effect in anesthetized dogs (blood flow volume / blood pressure). To be noted: intravenous. It is filed as in vivo, dog of mixed breed. As for the experimental part:
as §2, §3

A short description of data set [7]: Acute toxicity in rats. To be noted: in vivo, male rat, dihydrochloride. As for the experimental part: as §1
Where [8] appears, read: mouse, intravenous administration, male ddY-strain mice, hydrochloric acid salt.

As to `CC(CCCCC(C)NS(=O)(=O)c1cccc2cnccc12)NC(=N)N` (stereo not shown) [Compound 43, N-(6-Guanidino-1-methylheptyl)-5-isoquinolinesulfonamide], in data set [1] (setting [8]), the LD50 was 66 mg/kg. In addition, the “Increased Blood Flow Volume in Femoral Artery” value in data set [2] (1 mg/Kg (mm/Kg [sic])) was determined as 32%. The “Increased Blood Flow Volume in Vertebral Artery” value in data set [3] (1 mg/Kg (mm/Kg [sic])) was 68%. Also, in data set [4] (1 (mm/Kg [sic])), the “Average Decreased Blood Pressure” value is 15 mmHg. Also, the EC50 in data set [5] was found to be 5000 nM. Moreover, the “Duration Time” value in data set [6] (1 mg/Kg (mm/Kg [sic])) is 25 min.
In the case of `N=C(N)N1CCN(S(=O)(=O)c2cccc3cnccc23)CC1` [Compound 44, 4-Amidino-1-(5-isoquinolinesulfonyl)piperazine], in data set [1] (setting [8]), the 50% lethal dose (LD50) was determined as 12 mg/kg. In addition, the “Increased Blood Flow Volume in Femoral Artery” value in data set [2] (0.5 (mm/Kg [sic])) was 29%. For the same molecule, the “Increased Blood Flow Volume in Vertebral Artery” value in data set [3] (0.5 (mm/Kg [sic])) stood at 60%. In addition, the “Average Decreased Blood Pressure” value in data set [4] (0.5 (mm/Kg [sic])) is 50 mmHg. In addition, the EC50 in data set [5] is 600 nM. In addition, the “Duration Time” value in data set [6] (0.5 (mm/Kg [sic])) was above 30 min.
Consider `Cl.Cl.N=C(N)NCCNS(=O)(=O)c1cccc2cnccc12` [N-(2-guanidinoethyl)-5-isoquinolinesulfonamide dihydrochloride], for which the median lethal dose (LD50) in data set [1] (intravenous administration, male mouse, dihydrochloride) came out at 59 mg/kg; in data set [1] (oral administration, male mouse, dihydrochloride), 1480 mg/kg; in data set [7] (intravenous administration), 64 mg/kg; in data set [7] (oral administration), 1160 mg/kg.

A word on the LD50: it is the dose at which mortality reaches 50%.

The record behind these values is US4709032A, “Isoquinolinesulfonamide derivatives” (Asahi Kasei Kogyo Kabushiki Kaisha, priority 1982, dated 1987).
